Reference: patent publication US8633245B2, “PAI-1 inhibitor” (Institute of Medicinal Molecular Design, Inc., priority 2008, dated 2014)
Like-named read-outs stand apart in the source and are kept apart here.

Target: T1, recombinant human PAI-1 (Homo sapiens, UniProt P05121)
T1 construct: purchased Molecular Innovations, Inc
Assay: Test Example 2: human PAI-1 inhibitory activity (tPA fluorogenic substrate, pH 7.4 HEPES buffer)
Format: biochemical
Settings: for inhibition at 3 µM: read-out: Inhibition Rate of PAI-1 Activity (%)
Description: 0.1 M HEPES, 0.1 M NaCl. 1 mM EDTA. 0.1% Polyethylene glycol 8,000 (Hampton Research Corporation),
2 mM Dimethyldecylphoshine oxide [Apo-10] (Fluka Corporation)

[1] = human PAI-1, compound concentration 1 μM
[2] = human PAI-1, compound concentration 3 μM
[3] = human PAI-1, compound concentration 10 μM
[4] = human PAI-1, compound concentration 25 μM
[5] = human PAI-1, compound concentration 0.1 μM
[6] = human PAI-1, compound concentration 0.3 μM
[7] = human PAI-1, calculated from the inhibition rates

T1 sequence (P05121 24-402): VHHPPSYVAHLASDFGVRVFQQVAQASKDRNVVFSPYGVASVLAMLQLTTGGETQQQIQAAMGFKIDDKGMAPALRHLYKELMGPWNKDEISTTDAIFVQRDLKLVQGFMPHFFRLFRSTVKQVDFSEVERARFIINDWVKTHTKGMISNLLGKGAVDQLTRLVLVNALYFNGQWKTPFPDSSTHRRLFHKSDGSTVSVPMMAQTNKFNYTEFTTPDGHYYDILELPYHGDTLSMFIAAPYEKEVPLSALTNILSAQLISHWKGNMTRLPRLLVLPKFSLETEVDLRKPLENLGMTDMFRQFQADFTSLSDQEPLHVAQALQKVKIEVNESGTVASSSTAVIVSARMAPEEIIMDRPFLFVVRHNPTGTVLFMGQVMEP

SMILES	Inhibition Rate of PAI-1 Activity (%) [1] [%]	Inhibition Rate of PAI-1 Activity (%) [2] [%]	Inhibition Rate of PAI-1 Activity (%) [5] [%]	Inhibition Rate of PAI-1 Activity (%) [6] [%]	also measured
CC(C)(C)c1ccc(COc2ccc(N3CCN(c4ccc(OC(F)(F)F)cc4)CC3)cc2/C=C/C(=O)O)cc1 [Compound 418]	73	95			Inhibition Rate of PAI-1 Activity (%) [3]: 94%; Inhibition Rate of PAI-1 Activity (%) [4]: 90%
CC(C)(C)c1ccc(Oc2cc(-c3cccc([N+](=O)[O-])c3)ccc2OCC(=O)O)cc1 [Compound 485]	11	69	0	6	
CC(C)(C)c1ccc(Oc2cc(-c3cccc(C(F)(F)F)c3)ccc2OCC(=O)O)cc1 [Compound 315]					IC50 [7]: 850 nM; inhibition at 3 µM: > 99%
CC(C)(C)c1ccc(COc2cc(-c3ccc(OC(F)(F)F)cc3)ccc2OCC(=O)O)cc1 [Compound 304]					IC50 [7]: 1230 nM
O=C(O)COc1cc(Oc2ccc(OC(F)(F)F)cc2)ccc1OCCCCc1ccccc1 [Compound 452]	15	94	9	8	
CC(C)(C)c1ccc(Oc2ccc(-c3ccc(OC(F)(F)F)cc3)cc2N(CCCCc2ccccc2)C(=O)C(=O)O)cc1 [Compound 636]	72	81	2	21	
CCCCCOc1ccc(-c2ccccc2)cc1N(CCCCc1ccccc1)C(=O)C(=O)O [Compound 360]					IC50: 1590 nM
O=C(O)/C=C/c1ccc(-c2ccc(OC(F)(F)F)cc2)cc1Sc1ccccc1 [Compound 528]	51	97	8	12	
CC(C)c1ccc(Oc2cc(-c3ccc(OC(F)(F)F)cc3)ccc2/C=C/C(=O)O)cc1 [Compound 509]	96	>99	1	22	
CCCCCCCOc1cc(-c2ccc(OC(F)(F)F)cc2)cc(OCCCCCCC)c1OCC(=O)O [Compound 425]	>99		17	54	
O=C(O)CCc1ccc(-c2ccc(OC(F)(F)F)cc2)cc1Oc1ccc(OC(F)(F)F)cc1 [Compound 479]	70	>99	17	14	
CC(C)(C)c1ccc(Oc2cc(-c3cccc(C(F)(F)F)c3)ccc2CCC(=O)O)cc1 [Compound 332]					IC50 [7]: 1470 nM; inhibition at 3 µM: > 99%
CCCCCCCCOc1ccc(-c2ccc(OC(F)(F)F)cc2)cc1N(CCCCc1ccccc1)C(=O)C(=O)O [Compound 353]					IC50 [7]: 510 nM
CCCCc1ccc(-c2ccc(OCC(=O)O)c(Oc3ccc(C(C)(C)C)cc3)c2)cc1 [Compound 443]	76	>99	7	8	
O=C(O)CCc1ccc(-c2ccc(OC(F)(F)F)cc2)cc1OC(c1ccccc1)c1ccccc1 [Compound 507]	49	>99	6	8	
CCCCCOc1ccc(-c2ccc(OC(F)(F)F)cc2)cc1N(CCCCc1ccc(F)cc1)C(=O)C(=O)O [Compound 382]					IC50: 650 nM
CC(C)(C)c1ccc(CN(C(=O)CC(=O)O)c2ccc(-c3ccc(OC(F)(F)F)cc3)cc2)cc1 [Compound 608]	11	59			Inhibition Rate of PAI-1 Activity (%) [3]: 95%; Inhibition Rate of PAI-1 Activity (%) [4]: 95%
CCCCCCCOc1ccc(-c2ccc(OC(F)(F)F)cc2)cc1N(CCCCc1ccccc1)C(=O)C(=O)O [Compound 371]	93	91	10	17	IC50 (concentration that inhibits 50% of the human PAI-1 activity, calculated from Test Example 2 inhibition rates): 690 nM
CC(C)(C)c1ccc(Oc2cc(-c3ccc(OC(F)(F)F)cc3)ccc2CC(=O)O)cc1 [Compound 334]					IC50 [7]: 1910 nM
CCCCCOc1ccc(-c2ccc(OC(F)(F)F)cc2)cc1N(CCCCc1ccc(Cl)cc1)C(=O)C(=O)O [Compound 384]					IC50: 510 nM

Continued, in another order:

Inhibition Rate of PAI-1 Activity (%) [1] [%]	Inhibition Rate of PAI-1 Activity (%) [2] [%]	Inhibition Rate of PAI-1 Activity (%) [5] [%]	Inhibition Rate of PAI-1 Activity (%) [6] [%]	SMILES	also measured
0	14			CC(C)(C)c1ccc(CN(C(=O)C(=O)O)c2ccc(N3CCN(c4ccccc4)CC3)cc2)cc1 [Compound 627]	Inhibition Rate of PAI-1 Activity (%) [3]: 57%; Inhibition Rate of PAI-1 Activity (%) [4]: >99%
85	>99	4	9	Cc1cc(C)cc(-c2ccc(/C=C/C(=O)O)c(Oc3ccc(C(C)(C)C)cc3)c2)c1 [Compound 496]	
73	>99	2	6	CC(C)(C)c1ccc(Oc2cc(-c3ccccc3OC(F)(F)F)ccc2CCC(=O)O)cc1 [Compound 467]	
30	93	27	8	CC(C)(C)OCCOc1ccc(-c2ccc(OC(F)(F)F)cc2)cc1N(CCCCc1ccccc1)CC(=O)O [Compound 644]	
95	97	10	29	CCCCC(Oc1cc(Oc2ccc(C(C)(C)C)cc2)cc(-c2ccc(OC(F)(F)F)cc2)c1)C(=O)O (stereo not drawn) [Compound 426]	
69	>99	17	7	CC(C)c1ccccc1Oc1cc(-c2ccc(OC(F)(F)F)cc2)ccc1OCC(=O)O [Compound 513]	
>99	>99	11	17	CCCCCOc1ccc(-c2ccc(Oc3ccc(C(C)(C)C)cc3)c(OCC(=O)O)c2)cc1 [Compound 454]	
14	41			CCCCOc1ccc(-c2ccc(OC(F)(F)F)cc2)cc1CCC(=O)O [Compound 407]	Inhibition Rate of PAI-1 Activity (%) [3]: >99%; Inhibition Rate of PAI-1 Activity (%) [4]: 98%
25	80	19	14	CC(Oc1cc(-c2ccc(OC(F)(F)F)cc2)ccc1/C=C/C(=O)O)c1ccccc1 (stereo not drawn) [Compound 500]	
77	98	15	14	Cc1cc(C)cc(Oc2cc(-c3ccc(C(C)(C)C)cc3)ccc2CCC(=O)O)c1 [Compound 499]	
91	>99	6	13	CC(C)c1ccccc1Oc1cc(-c2ccc(OC(F)(F)F)cc2)ccc1/C=C/C(=O)O [Compound 490]	
